Reference: PubChem BioAssay AID248 (DTP/NCI, 2004)
Values joined by “and” are separate entries in the source; they are usually repeats but may differ in a detail not shown here. Equal values may be shown once. Inconclusive results and toxic doses are left out. Rule as the data show it: active = T/C of 150% or more; inactive = T/C below 125%.

System: L1210 leukemia ip in BDF1 mice, survival T/C
Test: NCI In Vivo Anticancer Drug Screen. Data for tumor model L1210 Leukemia (intraperitoneal) in B6D2F1 (BDF1) mice
Conditions: endpoint: mean survival time, higher = longer survival
Method in brief: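 Survival endpoint. Drug-treated group vs vehicle group, expressed as T divided by C. Tumor passaged by transplantation.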

[1] = dose: 100.0 mg/kg/injection, schedule: Q01DX009 (ip), vehicle: saline
[2] = dose: 200.0 mg/kg/injection, schedule: Q01DX009 (ip), vehicle: saline
[3] = dose: 400.0 mg/kg/injection, schedule: Q01DX009 (ip), vehicle: saline
[4] = dose: 100.0 mg/kg/injection, schedule: Q04DX002 (ip), vehicle: Klucel (hydroxypropylcellulose) (HPC)
[5] = dose: 200.0 mg/kg/injection, schedule: Q04DX002 (ip), vehicle: Klucel (hydroxypropylcellulose) (HPC)
[6] = dose: 100.0 mg/kg/injection, schedule: Q01DX001 (ip), vehicle: carboxymethylcellulose (CMC)
[7] = dose: 200.0 mg/kg/injection, schedule: Q01DX001 (ip), vehicle: carboxymethylcellulose (CMC)
[8] = dose: 400.0 mg/kg/injection, schedule: Q01DX001 (ip), vehicle: carboxymethylcellulose (CMC)
[9] = dose: 100.0 mg/kg/injection, schedule: Q01DX001 (ip), vehicle: saline
[10] = dose: 200.0 mg/kg/injection, schedule: Q01DX001 (ip), vehicle: saline
[11] = dose: 50.0 mg/kg/injection, schedule: Q01DX001 (ip), vehicle: saline
[12] = dose: 400.0 mg/kg/injection, schedule: Q01DX001 (ip), vehicle: saline
[13] = dose: 25.0 mg/kg/injection, schedule: Q01DX009 (ip), vehicle: saline

Measured: T/C

CN(C)c1ccc(-c2cc(C(=O)O)c3cc4ccccc4cc3n2)cc1
inactive: dose: 50.0 mg/kg/injection, schedule: Q01DX009 (ip), vehicle: saline with Tween-80 91 % of control | dose: 100.0 mg/kg/injection, schedule: Q01DX009 (ip), vehicle: saline with Tween-80 96 % of control | dose: 100.0 mg/kg/injection, schedule: Q04DX002 (ip), vehicle: saline with Tween-80 92 % of control | dose: 200.0 mg/kg/injection, schedule: Q01DX009 (ip), vehicle: saline with Tween-80 88 % of control | dose: 200.0 mg/kg/injection, schedule: Q04DX002 (ip), vehicle: saline with Tween-80 92 % of control

C[n+]1cccc2cccc(C(=O)O)c21
inactive: dose: 75.0 mg/kg/injection, schedule: Q01DX001 (ip), vehicle: saline 100 % of control | dose: 150.0 mg/kg/injection, schedule: Q01DX001 (ip), vehicle: saline 94 % of control

COc1ccc(C(O)c2cc(-c3ccncc3)c(C(O)c3ccc(OC)cc3)nn2)cc1 (stereo unspecified)
inactive: dose: 100.0 mg/kg/injection, schedule: Q04DX003 (ip), vehicle: gum acacia 94 % of control | dose: 200.0 mg/kg/injection, schedule: Q04DX003 (ip), vehicle: gum acacia 96 % of control | dose: 400.0 mg/kg/injection, schedule: Q04DX003 (ip), vehicle: gum acacia 88 % of control

N#C/C(=C\c1ccccc1Cl)c1cccc(Cl)c1
inactive: dose: 25.0 mg/kg/injection, schedule: Q01DX009 (ip), vehicle: other 107 % of control | dose: 50.0 mg/kg/injection, schedule: Q01DX009 (ip), vehicle: other 96 % of control | dose: 100.0 mg/kg/injection, schedule: Q01DX009 (ip), vehicle: other 93 % of control and 90 % of control

C/C=C/C=N/Nc1ccccc1
inactive: dose: 50.0 mg/kg/injection, schedule: Q04DX003 (ip), vehicle: other 87 % of control | dose: 100.0 mg/kg/injection, schedule: Q01DX001 (ip), vehicle: other 97 % of control | dose: 100.0 mg/kg/injection, schedule: Q04DX003 (ip), vehicle: other 92 % of control | dose: 200.0 mg/kg/injection, schedule: Q01DX001 (ip), vehicle: other 90 % of control | dose: 200.0 mg/kg/injection, schedule: Q04DX003 (ip), vehicle: other 93 % of control

c1ccc(C2CCCCCC2)cc1
inactive: [1] 104 % of control | [2] 95 % of control | [3] 90 % of control

CCCP(C)(C)=S
inactive: [4] 90 % of control | [5] 90 % of control

COc1cccc(C2=CCCCC2)c1
inactive: dose: 50.0 mg/kg/injection, schedule: Q01DX001 (ip), vehicle: carboxymethylcellulose (CMC) 96 % of control | [6] 93 % of control | [7] 96 % of control | [8] 98 % of control

Nc1nc(N)c(N=Nc2ccc(C(=O)O)cc2)c(=O)[nH]1
inactive: [9] 105 % of control | [10] 106 % of control

CCCCCCc1cc2c(cc1CCCC)CCC2
inactive: [11] 95 % of control | [9] 101 % of control | [10] 98 % of control | [12] 116 % of control

O=[N+]([O-])c1ccc(N/N=C(/Cc2ccccc2)c2ccc(Cl)cc2)c([N+](=O)[O-])c1
inactive: [9] 107 % of control | [10] 86 % of control | [12] 98 % of control

Nc1nnn(CCO)n1
inactive: dose: 100.0 mg/kg/injection, schedule: Q04DX003 (ip), vehicle: saline sonified 105 % of control | dose: 200.0 mg/kg/injection, schedule: Q04DX003 (ip), vehicle: saline sonified 102 % of control | dose: 400.0 mg/kg/injection, schedule: Q04DX003 (ip), vehicle: saline sonified 96 % of control

NNC(=O)c1ccccc1
inactive: dose: 12.5 mg/kg/injection, schedule: Q01DX009 (ip), vehicle: saline 100 % of control | [13] 97 % of control | [11] 90 % of control | dose: 50.0 mg/kg/injection, schedule: Q01DX009 (ip), vehicle: saline 111 % of control | dose: 50.0 mg/kg/injection, schedule: Q04DX003 (ip), vehicle: saline with Tween-80 97 % of control | [9] 108 % of control | [1] 100 % of control

c1ccc(CNNCc2ccccc2)cc1
inactive: dose: 75.0 mg/kg/injection, schedule: Q01DX009 (ip), vehicle: Klucel (hydroxypropylcellulose) (HPC) 102 % of control | dose: 100.0 mg/kg/injection, schedule: Q04DX003 (ip), vehicle: Klucel (hydroxypropylcellulose) (HPC) 102 % of control | dose: 150.0 mg/kg/injection, schedule: Q01DX009 (ip), vehicle: Klucel (hydroxypropylcellulose) (HPC) 109 % of control | dose: 200.0 mg/kg/injection, schedule: Q04DX003 (ip), vehicle: Klucel (hydroxypropylcellulose) (HPC) 94 % of control

CCCOP(=O)(OCCC)C(OC(=O)C(C)(C)C)=C(C)C
inactive: dose: 100.0 mg/kg/injection, schedule: Q04DX003 (ip), vehicle: saline with Tween-80 92 % of control | dose: 200.0 mg/kg/injection, schedule: Q04DX003 (ip), vehicle: saline with Tween-80 96 % of control

O=[N+]([O-])c1ccc(C(SCc2ccccc2)SCc2ccccc2)cc1
inactive: dose: 75.0 mg/kg/injection, schedule: Q01DX001 (ip), vehicle: carboxymethylcellulose (CMC) 97 % of control | dose: 150.0 mg/kg/injection, schedule: Q01DX001 (ip), vehicle: carboxymethylcellulose (CMC) 100 % of control | dose: 300.0 mg/kg/injection, schedule: Q01DX001 (ip), vehicle: carboxymethylcellulose (CMC) 97 % of control

c1ccc(-c2nc3ccccc3s2)cc1
inactive: dose: 100.0 mg/kg/injection, schedule: Q04DX002 (ip), vehicle: gum acacia 101 % of control | dose: 200.0 mg/kg/injection, schedule: Q04DX002 (ip), vehicle: gum acacia 111 % of control | dose: 400.0 mg/kg/injection, schedule: Q04DX002 (ip), vehicle: gum acacia 86 % of control

Cc1cc[n+](Cc2ccccc2Cl)c(C)c1
inactive: dose: 6.25 mg/kg/injection, schedule: Q01DX009 (ip), vehicle: saline 105 % of control | dose: 6.25 mg/kg/injection, schedule: Q04DX003 (ip), vehicle: saline 96 % of control | dose: 8.0 mg/kg/injection, schedule: Q01DX009 (ip), vehicle: saline 99 % of control | dose: 12.0 mg/kg/injection, schedule: Q01DX009 (ip), vehicle: saline 96 % of control | dose: 12.5 mg/kg/injection, schedule: Q04DX003 (ip), vehicle: saline 102 % of control | dose: 18.0 mg/kg/injection, schedule: Q01DX009 (ip), vehicle: saline 105 % of control | [13] 113 % of control

CN(C)c1nn2c(-c3ccccc3)nnc2o1
inactive: [1] 94 % of control | [2] 102 % of control | [3] 100 % of control

CCCCCCCCNC(C)C1=C(O)c2ccccc2C(=O)C1=O (stereo unspecified)
inactive: dose: 100.0 mg/kg/injection, schedule: Q01DX001 (ip), vehicle: saline with Tween-80 89 % of control | dose: 200.0 mg/kg/injection, schedule: Q01DX001 (ip), vehicle: saline with Tween-80 86 % of control | dose: 400.0 mg/kg/injection, schedule: Q01DX001 (ip), vehicle: saline with Tween-80 86 % of control

Cc1ccccc1C(=O)C(=O)c1ccccc1C
inactive: dose: 100.0 mg/kg/injection, schedule: Q01DX009 (ip), vehicle: Klucel (hydroxypropylcellulose) (HPC) 95 % of control | dose: 200.0 mg/kg/injection, schedule: Q01DX009 (ip), vehicle: Klucel (hydroxypropylcellulose) (HPC) 106 % of control | dose: 400.0 mg/kg/injection, schedule: Q01DX009 (ip), vehicle: Klucel (hydroxypropylcellulose) (HPC) 93 % of control

COc1cccc(CCNC(=O)CC(=O)O)c1OC
inactive: dose: 100.0 mg/kg/injection, schedule: Q04DX003 (ip), vehicle: saline 92 % of control | dose: 200.0 mg/kg/injection, schedule: Q04DX003 (ip), vehicle: saline 103 % of control | dose: 400.0 mg/kg/injection, schedule: Q04DX003 (ip), vehicle: saline 110 % of control

CNC(=S)N/N=C(\C=N\NC(=S)NC)c1ccc(C)cc1
inactive: [4] 106 % of control | [5] 100 % of control | dose: 400.0 mg/kg/injection, schedule: Q04DX002 (ip), vehicle: Klucel (hydroxypropylcellulose) (HPC) 103 % of control

CC(=O)OCC1OC(n2cnc3c(F)nc(F)nc32)C(OC(C)=O)C1OC(C)=O (stereo unspecified)
inactive: dose: 100.0 mg/kg/injection, schedule: Q01DX001 (sc), vehicle: olive oil, sesame oil, peanut oil 104 % of control | dose: 200.0 mg/kg/injection, schedule: Q01DX001 (sc), vehicle: olive oil, sesame oil, peanut oil 104 % of control | dose: 400.0 mg/kg/injection, schedule: Q01DX001 (sc), vehicle: olive oil, sesame oil, peanut oil 100 % of control

Cc1ccccc1OCc1nc(-c2ccc(N(CCCl)CCCl)cc2)cs1
inactive: [6] 101 % of control | [7] 113 % of control | [8] 104 % of control
